Values of other authors as cited in patent US7501409B2, “Preparations for oral administration” (Mitsubishi Tanabe Pharma Corporation, priority 2000, dated 2009).
Counter-ions that a name gives are not always drawn. Like-named read-outs stand apart in the source and are kept apart here.

CCCc1nn(C)c2c(=O)[nH]c(-c3cc(S(=O)(=O)N4CCN(C)CC4)ccc3OCC)nc12 [sildenafil citrate]
solubility (pH 1.2): 2520 µg/mL
solubility (pH 6.8): 110 µg/mL
